Results on 1 compound are retold here after article PMC10797614, “MYC-Targeting Inhibitors Generated from a Stereodiversified Bicyclic Peptide Library” (Journal of the American Chemical Society, 2024).

The target in this assay is T1, MYC (Homo sapiens, UniProt P01106).
T1 construct: made in house; host or cells: E. coli BL21(DE3)
The experiment in a line: Temperature-dependent circular dichroism spectroscopy. The format is binding. Conditions: NT-B2R 100 μM, MYC 0.1 mg/mL, 0.1 M phosphate buffer pH 7.4, 30 °C to 60 °C. From the text: To further study the nature of the interaction between NT-B2R and MYC, we leveraged temperature-dependent circular dichroism (CD) spectroscopy. Here, if no conformation change was involved, the CD spectra of the MYC/NT-B2R mixture would be the addition of each component’s spectra (Figure 3J, calculated). However, we observed drastically different CD spectra (Figure 3J, measured and difference).
Protein thermal shift assay with GlomeltTM
Follow the Biotium’s protocol PI-3302133022. The reactions were set up in qPCR tubes, for each tube 1 μg recombinant MYC protein (1 μg/μL, 1 μL), GlomeltTM dye (10x, 2 μL), peptide ligand (2x, 10 uL, final concentration 500 μM), PBS (1x, 7 uL) to make a total volume of 20 μL with triplicate. For control group, PBS (1x, 17 μL) was used without peptide ligand. […] The resulting curve was fitted with a Boltzmann curve within the range of 45-60 °C and Tm was calculated from the fitted curve. […]
NT-B2R peptide and MYC protein were diluted to the final working concentrations of 100 μM and 0.1 mg/mL respectively. […] Spectra in the 180-280 nm range were recorded in a 1 mm path length cell.
The collected CD spectra were processed in OriginProTM. […] Spectra addition and subtraction were performed before the matrix conversion to generate the calculated and difference […]

*1 amine or outer side, *2 acyl side, *3 side chain or, on linkers, in order; H or OH if unused. Where a SMILES comes first, the peptide text is derived from it. Bridges are numbered along the chain shown (N, C = ends). X1 = O=C([C@@H]1C[C@H](C=CCO[*:3])C[C@@H]1C=CCO[*:1])[*:2]

T1 sequence (P01106 16-454): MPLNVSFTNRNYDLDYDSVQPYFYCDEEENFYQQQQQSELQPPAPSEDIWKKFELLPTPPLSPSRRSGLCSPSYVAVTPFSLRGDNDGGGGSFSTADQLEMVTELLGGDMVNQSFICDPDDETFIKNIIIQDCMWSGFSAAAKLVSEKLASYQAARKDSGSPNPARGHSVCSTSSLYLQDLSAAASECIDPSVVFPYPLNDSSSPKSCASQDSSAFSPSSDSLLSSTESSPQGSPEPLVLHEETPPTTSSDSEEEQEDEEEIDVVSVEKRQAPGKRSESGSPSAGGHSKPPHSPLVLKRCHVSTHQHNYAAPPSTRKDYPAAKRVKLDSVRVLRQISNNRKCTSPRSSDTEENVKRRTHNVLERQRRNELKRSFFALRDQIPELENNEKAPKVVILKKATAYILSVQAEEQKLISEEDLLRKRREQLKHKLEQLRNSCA

Turning to `CC(C)C[C@@H]1NC(=O)[C@H](CCCNC(=N)N)NC(=O)[C@@H]2CCCCNC(=O)[C@@H]3C[C@H](C=CCOC(=O)CC[C@@H](C(N)=O)NC1=O)C[C@@H]3C=CCOC(=O)CC[C@H](N)C(=O)N[C@@H](Cc1c[nH]c3ccccc13)C(=O)N1CCC[C@H]1C(=O)N[C@@H](Cc1c[nH]cn1)C(=O)N[C@@H](CCCNC(=N)N)C(=O)N2` [NT-B2R] (H-EWPHRKRLE-NH2; linker 1-6-9 via X1; N-terminus and C-terminus assumed), the “CD spectra of MYC/peptide mixture versus calculated sum (in words)” value is recorded as “significant changes in the conformation landscape”.
